Read-outs that look alike come from different tables or passages of the source.
What was measured:
[1] = Potentiation of narcosis with pentobarbital (loss of righting reflex); assay type: in vivo, mouse (CD1 Charles Rivers mice); settings: mouse; for Potentiation of pentobarbital, percent of animals in narcosis: products at 100 mg/kg p.os.; for Potentiation of pentobarbital, percent of animals in narcosis / ED50: 60 min before pentobarbital 20 mg/kg i.p.; for ED50: po, p.os., probit method, confidence limits in parentheses, P <= 0.05
Procedure: For the purpose of evaluating the hypnogenic power of the products, their capacity to potentiate the effects of a subnarcotic dose of pentabarbital in the mouse was studied. The batches were constituted by 10 CD1 Charles Rivers mice, of weight comprised between 20 and 24 g.
The pentobarbital (20 mg/kg, i.p.) was administered 60 minutes after administration of the products. The drowsiness criterion taken was the loss of the righting reflex.

[2] = Effect on spontaneous motility (Boissier and Simon activity test, actimetric cages); assay type: in vivo, mouse (CD1 Charles Rivers female mice); settings: mouse; for Locomotor activity, score percent/controls: 100 mg/kg p.os., 45 min after administration, 10 min recording, * P <= 0.05, ** P <= 0.01; for Effect on spontaneous motility (in words): oral dose of 100 mg/kg
Procedure: The spontaneous motility of the animals was measured by means of the activity test developed by Boissier and Simon, Arch. Int. Pharmacocyn., 1965, 158, 212-221. The equipment is composed of actimetric cages, type Apelab (26×21.5×10 cm), traversed by two light rays which fall on a photoelectric cell. The batches were constituted by CD1 Charles Rivers female mice, of weight comprised between 20 and 24 g. The animals were placed individually in cages 45 minutes after oral administration of the products at the dose of 100 mg/kg. Each traversal by a light beam was counted by an individual counter. The scores corresponding to the movements of the animals were recorded for 10 minutes, and compared with the scores taken on batches of control animals, treated only with the vehicle (5% gum arabic).

[3] = Antagonism of convulsions and of mortality caused by bicucullin; assay type: in vivo, mouse (CD Charles Rivers mice)
Procedure: (§1) The anticonvulsant effect of the products in the mouse was evaluated on a model of convulsions caused by electric shock, and on 2 models of convulsions induced by chemical agents: bicuculline and 3-mercaptopropionic acid.
(§2) The batches were constituted by 10 CD Charles Rivers mice of weights comprised between 20 and 22 g. The products were administered orally, 60 minutes before the bicucullin (0.8 mg/kg, i.v.).

[4] = Antagonism to the convulsions caused by 3-mercaptopropionic acid; assay type: in vivo, mouse (CD Charles Rivers mice); settings: mouse, oral, 60 min before 3-mercaptopropionic acid 60 mg/kg s.c.; probit method, confidence limits in parentheses, p <= 0.05; read-out: Median effective dose (ED50) of antagonism to convulsions caused by 3-mercaptopropionic acid
Procedure: as §1
(§3) The batches were constituted by 10 CD Charles Rivers mice of weights comprised between 20 and 22 g. The products were administered orally 60 minutes before the 3-mercaptopropionic acid (60 mg/kg s.c.).

[5] = Evaluation of the anticonvulsant activity (electric shock, bicucullin and 3-mercaptopropionic acid taken together); assay type: in vivo; settings: mouse, oral
Procedure: as §1
(§4) The test was slightly modified from that of Swinyard et al., J. Pharm. Exp. Ther., 1952, 106, 319-330 and Asami et al. Arzneim. Forsch., 1974, 24 (1), 1563-1568. The equipment was composed of a Racia shock generator provided with two occular electrodes delivering a current of 60 volts for 0.3 seconds. The batches were constituted by 10 CD1 Charles Rivers mice of weight comprised between 20 and 24 g. The products were administered orally, 60 minutes before the electroshock.
as §2, §3

[6] = Acute toxicity, determination of the lethal dose in the mouse; settings: in vivo, po, read-out: Percent toxicity (animals which die in 72 hours)
Procedure: The toxicity of the products according to the invention was studied: the products were administered orally, to batches of 5 CD Charles Rivers female mice, of weights comprised between 20 and 24 g. The toxicity was noted during the 72 hours which followed the administration of the products.
The results expressed as a percentage of animals which die in the 72 hours following the oral administration of the products, are noted in the preceding table.

[7] = Antagonism of the convulsions induced by electric shock; assay type: in vivo, mouse (CD1 Charles Rivers mice); settings: mouse; for ED50: oral, 60 min before electroshock, probit method, confidence limits in parentheses, p <= 0.05, read-out: Median effective dose (ED50) of electric shock antagonism
Procedure: as §1, §4

[8] = Mus musculus, po, read-out: Median effective dose (ED50) of the antagonism to the effects of bicucullin: Mortality
[9] = mouse, oral, 60 min before bicucullin 0.8 mg/kg i.v., probit method, confidence limits in parentheses, p < 0.05, read-out: Median effective dose (ED50) of the antagonism to the effects of bicucullin: Tonic convulsions

Compound | Hypnogenic effect / potentiation of narcosis with pentobarbital (in words) ([1]; oral) | Potentiation of pentobarbital, percent of animals in narcosis [1] [%] | Locomotor activity, score percent/controls [2] | Effect on spontaneous motility (in words) [2] | Antagonism to bicucullin mortality ([3]; mouse, at 200 (mg/kg p.o.)) [%] | Median effective dose (ED50) of the antagonism to the effects of bicucullin: Tonic convulsions ([3]; mouse, oral, 60 min before bicucullin 0.8 mg/kg i.v., probit method, confidence limits in parentheses, p < 0.05) | ED50 [4] [mg/kg] | Anticonvulsant properties (in words) [5] | mortality at 72 h ([6]; 250 mg/kg p.os.) [%] | mortality at 72 h ([6]; 500 mg/kg p.os.) [%] | mortality at 72 h ([6]; 1000 mg/kg p.os.) [%] | Inhibition of electric shock convulsions ([7]; at 200 mg/kg p.os.) [%] | ED50 [7] [mg/kg] | ED50 [1] [mg/kg] | ED50 [3, 8] [mg/kg] | ED50 [3, 9] [mg/kg]
O=C1CCC(Cc2ccccc2)N1 (stereo not drawn) [Compound A, 5-phenylmethyl 2-pyrrolidinone, reference compound] | devoid of hyponogenic effect | 0 | +1.2% | does not act on the spontaneous motility | 30 | inactive at 200 | > 100 | does not show anticonvulsant properties | 0 | 0 | 60 | 40 | – | – | – | –
CC1(C)CC(Cc2ccccc2F)NC1=O (stereo not drawn) [SR 41680] | – | – | +99% | stimulating effects of the motor activity | – | – | 54 | – | 0 | 0 | – | – | 51 | – | – | –
CC1(C)CC(Cc2ccc(F)cc2)NC1=O (stereo not drawn) [SR 41293, 3,3-dimethyl-5-[(4-fluoro-phenyl)-methyl]2-pyrrolidinone] | – | 80 | – | – | – | – | 20 | – | 0 | 0 | 80 | – | 99 | 56 | 41 | 90
CC1CC(Cc2ccccc2F)NC1=O (stereo not drawn) [SR 41881] | – | 30 | +41% | stimulating effects of the motor activity | – | – | 46 | – | 0 | 0 | 100 | – | 92 | – | – | –
CCC1(C)CC(Cc2ccc(F)cc2)NC1=O (stereo not drawn) [SR 42002] | – | 50 | – | – | – | – | 49 | – | 0 | 0 | 100 | – | 49 | – | – | ~100
CC1CC(Cc2ccccc2Cl)NC1=O (stereo not drawn) [SR 41678] | – | 30 | +45% | stimulating effects of the motor activity | – | – | 53 | – | 0 | 0 | 60 | – | 44 | – | – | 76
CC1CC(Cc2ccc(Cl)cc2Cl)NC1=O (stereo not drawn) [SR 41676] | – | 100 | -34% | sedative activity characterized by a considerable reduction in the motility | – | – | 23 | – | 0 | 0 | 0 | – | – | 48 | – | –
CC1(C)CC(Cc2ccc(Cl)cc2)NC1=O (stereo not drawn) [SR 41873] | – | 10 | – | – | – | – | 48 | – | 0 | 0 | – | – | 62 | – | 85 | 112
